Patent US8066972B2, “Altering memory by affecting staufen function” (Helicon Therapeutics, Inc., priority 2002, dated 2011)

Tested on: C57B1/6 male mice
Assay: Contextual fear conditioning (weak versus strong training), 4-day contextual memory scored as freezing, after intra-hippocampal infusion
Format: in vivo, mouse
Design: effect on memory induced by strong training: dose or concentration left out as unconfirmed
Conditions: tested 4 days after training; for freezing responses: ANI 62.5 μg/2 μl per hippocampus immediately after training
Procedure: Ten to twelve week old C57B1/6 male mice (Taconic Laboratory, N.Y.) were used. Mice were housed in groups of four in standard mouse cages and kept in a 12:12 light-dark cycle and constant temperature (22° C.) in a humidity and ventilation-controlled animal house. With the exception of surgery, training and testing times, the mice had ad lib access to food and water. Animals were acclimatized to animal house environment for a week before surgery. On a day of surgery, mice were anesthetized with 20 mg/kg Avertin and implanted with a 26-gauge guide double cannula aimed at the dorsal hippocampus using a stereotaxic apparatus (Korf Instruments, Calif.; coordinates: P=1 mm; 5 mm to a depth 1-1.2 mm; Franklin and Paxinos, The Mouse Brain In Stereotaxis Coordinates, Academic Press, San Diego, Calif. (1997)). After the end of surgery, animals were individually maintained in a cage with ad lib access to food and water. Seven days after recovery from surgery, animals were trained for contextual fear conditioning.
The basic fear conditioning procedures and equipment remained as described (Bourtchuladze, R. et al., Cell, 79:59-68 (1994); and Bourtchouladze et al., Learn Mem., 5(4-5):365-374 (1998)). On the training day, the mouse was placed in the conditioning chamber (Med Associates) for 2 minutes before the onset of unconditioned stimulus (US) of 0.5 mA, two seconds shock. For weak training, US was repeated two times with a one minute inter-trial interval between shocks. For strong training, 5 USs were given. Training was automated and performed by computerized software package (Med Associates).
Thirty seconds after the end of the last trial, the mouse was returned to its home cage. The conditioning chamber was cleaned with 75% ethanol and then with water. Contextual memory was tested four days after training by scoring freezing responses. Freezing was assessed with a sampling method. That is, 2 second observations were taken every 5 seconds (Bourtchuladze, R. et al., Cell, 79:59-68 (1994); Bourtchouladze et al., Learn Mem., 5(4-5):365-374 (1998); and Frankland, P. W. et al., Behav. Neurosci., 112:863-874 (1998)). A mouse was detminined to be freezing when it adopted a motionless posture, refraining from all but respiratory movements.
For each training and drug-injecting procedure, an experimentally nave group of animals was used. The observations were made by an experimenter unaware of the experimental treatment of the mice. In each experiment, both training and testing were videotaped. Experiments were analyzed with an analysis of variance (ANOVA) and t-tests.
Anisomycin (ANI) (Sigma) was dissolved in 0.9% saline, and the pH was adjusted with 1 N HCl to 7.4. Control animals received injections of saline. Mice were injected in the hippocampus (62.5 μg/2 μl per hippocampus) immediately after training. Infusions were made through the guide cannula using a 33-gauge injection needle. The needle was connected via a polyethylene tube to a microsyringe fixed in the pump 11 (Harvard Instruments). The entire infusion procedure took 2 minutes and animals were freely moving during this time in the home cage. Experiments were replicated 2 times and for each training procedure, an experimentally nave group of animals was used (n=47 total).
Mouse antisense oligodeoxynucleotides (ODNs) directed against CREB mRNA (5′-T-s-g-s-g-s-T-C-A-T-T-g-T-T-A-C-C-g-s-g-s-T-s-g-3′) (SEQ ID NO:1) was used to disrupt hippocampal CREB protein levels. Control groups received infusions of ODN of the same base composition but in randomized order (scrambled CREB: 5′-g-s-T-s-C-s-T-g-T-A-g-T-C-g-A-T-C-T-A-T-s-g-s-g-s-T3′) (SEQ ID NO:2). ODNs were administered into the hippocampus (2 nmol/2 μl per hippocampus) as described above for ANI-infusion. CREB ODNs were infused 20 hours before training. Experiments were replicated 3 times and for each training procedure, an experimentally nave group of animals was used (n=54 total). […]

COc1ccc(C[C@H]2NC[C@H](O)[C@H]2OC(C)=O)cc1 [ANI, Anisomycin]
freezing responses (strong training (5 USs)): 28.42±4.9%
freezing responses (weak training (2 USs)): 17.1±4.3%
effect on memory induced by weak training (ANI 62.5 mg/2 μl per hippocampus immediately after training, weak training, vs vehicle): significantly impaired memory
effect on memory induced by strong training (ANI per hippocampus immediately after training, strong training, vs vehicle): significantly impaired memory

COc1ccc(C2CNC(=O)C2)cc1OC1CCCC1 (centres unmarked) [Rolipram]
effect on memory induced by weak training (Rolipram 0.03 ng into hippocampus, weak training (2 trials)): had no memory enhancing effect
effect on memory induced by weak training (Rolipram 3 ng into hippocampus, weak training (2 trials)): produced memory enhancing effect
effect on memory induced by weak training (Rolipram 30 ng/1 μl per hippocampus immediately after training, 2 trials, vs vehicle): significantly enhanced the amount of memory
effect on maximal memory levels produced by strong training (Rolipram 30 ng/1 μl per hippocampus immediately after training, 5 trials, vs vehicle): had no effect
